These results are taken from patent publication US20250011299A1, “PYRIDAZINYL AMINO DERIVATIVES AS ALK5 INHIBITORS” (CHIESI FARMACEUTICI S.P.A., priority 2021, published 2025).

pKi: −log10 of the molar value. Bounds are passed on as bounds.

In the assay the target is T1, human ALK5 (Homo sapiens, UniProt P36897).
T1 construct: human ALK5 (recombinant TGF β1 N-term GST-tagged, 80-end); GST (N); purchased
T1 sequence (P36897 80-503 limits assumed): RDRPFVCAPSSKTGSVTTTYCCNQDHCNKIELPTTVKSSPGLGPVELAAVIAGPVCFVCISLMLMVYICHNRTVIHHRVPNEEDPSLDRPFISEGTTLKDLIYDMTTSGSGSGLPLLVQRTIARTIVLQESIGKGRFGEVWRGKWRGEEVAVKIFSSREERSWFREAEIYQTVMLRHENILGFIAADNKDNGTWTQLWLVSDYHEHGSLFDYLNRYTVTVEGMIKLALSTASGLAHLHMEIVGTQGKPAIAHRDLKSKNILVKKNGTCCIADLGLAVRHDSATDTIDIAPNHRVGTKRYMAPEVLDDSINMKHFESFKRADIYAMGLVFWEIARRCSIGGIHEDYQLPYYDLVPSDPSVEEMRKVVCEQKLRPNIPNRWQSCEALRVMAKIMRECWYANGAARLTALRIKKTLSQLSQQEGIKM
The assay is described as follows: ADP-GLO Kinases assay of ALK5 enzymatic activity. In kind it is biochemical. Particulars: purified recombinant human ALK5, TGFβ1 peptide substrate, pIC50 converted to pKi by Cheng-Prusoff, high ATP protocol (15 μM) for very potent compounds, 25° C. In short, it runs like this: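 Purified ALK5 preincubated 15 min with compound, then reacted with substrate and ATP; ADP formed read by ADP-Glo luminescence after 120 min or 60 min reaction, all steps at 25° C. 11-point concentration-response; pIC50 converted to pKi via Cheng-Prusoff.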
Background: ADP-Glo turns the ADP formed in a reaction into a luminescent signal.
The pKi is −log10 of the Ki, conventionally taken in molar units. On to `CN1CCN([C@H]2C[C@@H](C(=O)Nc3cc(Nc4cc(-c5cc(Cl)ccc5F)nnc4SCCO)ncn3)C2)CC1` [Example 91, Cis N-(6-{[6-(5-chloro-2-fluorophenyl)-3-[(2-hydroxyethyl)sulfanyl]pyridazin-4-yl]amino}pyrimidin-4-yl)-3-(4-methylpiperazin-1-yl)cyclobutane-1-carboxamide], for which the pKi was 9.50 to 9.90.

As to `C[N+](C)(C)CCCOc1nnc(-c2cc(Cl)ccc2F)cc1Nc1ccnc(NC(=O)C2CC2)c1` [Example 58, (3-{[6-(5-chloro-2-fluorophenyl)-4-[(2-cyclopropaneamidopyridin-4-yl)amino]pyridazin-3-yl]oxy}propyl)trimethylazanium chloride], the pKi was 8.50 to 9.40. In the case of `O=C(Nc1cc(Nc2cc(-c3cc(Cl)ccc3F)nnc2OCCN2CCCC2)ccn1)C1CC1` [Example 54, N-(4-{[6-(5-chloro-2-fluorophenyl)-3-[2-(pyrrolidin-1-yl)ethoxy]pyridazin-4-yl]amino}pyridin-2-yl)cyclopropanecarboxamide], the pKi was at least 10.00. Turning to `CN1CCN([C@H]2C[C@@H](C(=O)Nc3cc(Nc4cc(-c5cc(Cl)ccc5F)nnc4N(C)CC4(C)CCOC4=O)ncn3)C2)CC1` (single isomer, unassigned; enantiomer 1) [Example 143, Cis Enantiomer 1 N-(6-{[6-(5-chloro-2-fluorophenyl)-3-{methyl[(3-methyl-2-oxooxolan-3-yl)methyl]amino}pyridazin-4-yl]amino}pyrimidin-4-yl)-3-(4-methylpiperazin-1-yl)cyclobutane-1-carboxamide], the pKi is 9.50 to 9.90. As to `C[C@@H]1CN(CC(=O)Nc2cc(Nc3cc(-c4cc(Cl)ccc4F)nnc3SCCO)ccn2)C[C@H](C)N1` [Example 193, N-(4-{[6-(5-chloro-2-fluorophenyl)-3-[(2-hydroxyethyl)sulfanyl]pyridazin-4-yl]amino}pyridin-2-yl)-2-(3,5-dimethylpiperazin-1-yl)acetamide], the pKi was at least 10.00.

As to `CN1CCN(CCC(=O)Nc2cc(Nc3cc(-c4cc(Cl)ccc4F)nnc3SCC3(C)CCOC3=O)ccn2)CC1` (stereo not shown) [Example 197, N-(4-{[6-(5-chloro-2-fluorophenyl)-3-{[(3-methyl-2-oxooxolan-3-yl)methyl]sulfanyl}pyridazin-4-yl]amino}pyridin-2-yl)-3-(4-methylpiperazin-1-yl)propanamide], the pKi is 9.50 to 9.90. To `CN1CCN(CCC(=O)Nc2cc(Nc3cc(-c4cc(Cl)ccc4F)nnc3S(C)(=N)=O)ccn2)CC1` (stereo not shown) [Example 19, N-(4-{[6-(5-chloro-2-fluorophenyl)-3-[imino(methyl)oxo-λ^6-sulfanyl]pyridazin-4-yl]amino}pyridin-2-yl)-3-(4-methylpiperazin-1-yl)propanamide] belongs 8.50 to 9.40; to `CN1CCN(CCC(=O)Nc2cc(Nc3cc(-c4cc(Cl)ccc4F)nnc3S(C)(=O)=O)ccn2)CC1` [Example 18, N-(4-{[6-(5-chloro-2-fluorophenyl)-3-methanesulfonylpyridazin-4-yl]amino}pyridin-2-yl)-3-(4-methylpiperazin-1-yl)propanamide], 9.50 to 9.90; to `COC(=O)COc1nnc(-c2cc(Cl)ccc2F)cc1Nc1ccnc(NC(=O)CCN2CCN(C)CC2)c1` [Example 15, methyl 2-{[6-(5-chloro-2-fluorophenyl)-4-({2-[3-(4-methylpiperazin-1-yl)propanamido]pyridin-4-yl}amino)pyridazin-3-yl]oxy}acetate], 9.50 to 9.90. For `COCCOc1nnc(-c2cc(Cl)ccc2F)cc1Nc1ccnc(N)c1` [Example 69, N4-[6-(5-chloro-2-fluorophenyl)-3-(2-methoxyethoxy)pyridazin-4-yl]pyridine-2,4-diamine], the negative logarithm of the Ki (pKi) was 8.50 to 9.40.
